In patent US20250382556A1, “MODULATION OF THE BRANCHED-CHAIN METABOLITE CONTENT OF FRUITS AND VEGETABLES” (BOARD OF TRUSTEES OF MICHIGAN STATE UNIVERSITY, priority 2024, published 2025):

Experiments:
[1] = system: ‘Red Delicious’ apple fruit; assay: Physiology of MCP-treated stored apple fruit (respiration, firmness); assay type: in vivo, Malus x domestica Borkh.; conditions: Red Delicious after five months storage in air at 0° C. and warming
Experimental: ‘Gala’, ‘Empire’, ‘Jonagold’, and ‘Red Delicious’ apple fruit (Malus x domestica Borkh.) were harvested from local orchards at commercial maturity and transported to the laboratory during the 2022 and 2023 seasons. As determined by previously described methods, the fruit were at the developmental onset of ripening with no subjectively discernible aroma. ‘Gala’ and ‘Empire’ fruits began treatment immediately after arrival in the laboratory. ‘Jonagold’ fruit were held in air at 0° C. for two days before transfer to controlled atmosphere (CA) storage (1.5 O2, 3% CO2, 0° C.) and then kept in CA for twelve days to suppress ethylene action before the initiation of inhibitor treatment. ‘Red Delicious’ fruit were treated with 50 nL·^−1 1-methylcyclopropene (MCP) for 24 h at 0° C. The MCP was evolved from a commercial MCP product (EASYFRESH®, Fine Americas) in sealed chambers two days after harvest as previously described. The fruit were then stored in air at 0° C. for five months and were warmed to 22° C. for 24 h before sulfonylurea treatment. This low-dosage MCP treatment had very mild effects on physiology. […] Based on the internal ethylene concentration (˜100 μL·L^−1) and the total ester production (elevated and trending upwards), the fruit were considered to be of an advanced stage of ripeness, but not senescent. […]

banana pulp [2] = assay: Headspace volatile ester emissions of banana pulp sections treated with AHAS inhibitor; parameters: species or system Musa spp. AAA group, Cavendish subgroup, cv. Valery; key to 1-methylbutyl acetate emissions compared to control: —: Dash indicates no significant difference between treatments
Excerpt: Banana fruit at an early stage of ripening were infiltrated with AHAS inhibitors by two means. The first method was used for the effects of sulfonylureas on volatile and amino acid content, whereas the second was used to investigate the recovery of sulfonylurea-treated fruits after precursor application.
(§1) In the first method, mature green ‘Valery’ fruit were cut into ˜1 cm^2 sections, 2-mm thick, from transverse sections of fruit not treated with ethylene. Care was taken such that one edge of the square was from the edge of the pulp, thus representing an undisturbed or ‘live edge’ of cells that should be able to maintain unhindered gas exchange. Pulp sections were prepared in vials as above described for apples. Treatment solution: 0.5 mM halosulfuron-methyl (methyl 3-chloro-5-(4,6-dimethoxypyrimidin-2-ylcarbamoylsulfamoyl)-1-methylpyrazole-4-carboxylate, made from SANDEA®, Gowan Co. 75% w/w active ingredient; 0.1% Tween 20). Ripening was induced by injection of 1 μL ethylene into the vial's 20-mL headspace. The following day the vials were vented for 15 min before having the Mininert valve (Valco Instruments Co. Inc.) replaced on the vial but with a needle inserted to allow for gas diffusion. Daily for the following two days, 20 μL of freshly made inhibitor or water solution was added onto the pulp. The needles were again kept in the valves to maintain gas diffusion. The next day, and thus four days since initially preparing the vials, the needles were removed, and the vials were sealed and incubated for at least 1 hour at room temperature (22° C.) before headspace sampling.
Headspace volatiles from small tissue samples incubated in 22 mL vials were adsorbed for 30 s using a solid-phase micro extraction (SPME) fiber (65 μm PDMS-DVB; Supelco Analytical). The SPME fiber was then directly desorbed for 1 min in the injection port of a gas chromatograph (GC; HP-6890, Hewlett-Packard) coupled to a time-of-flight mass spectrometer (MS; Pegasus II, LECO). Whole fruits and banana slices were incubated for 20 min at room temperature (22° C.) in 1-L sealed Teflon jars before a 15-s, or 3-min adsorption and 1- or 2-min desorption. Adsorption times were adjusted to ensure instrument responses were in the linear range. All desorbed volatiles were cryofocused at the beginning of the column by immersing said region of the column in liquid nitrogen. After the desorption period, the run was initiated and the liquid nitrogen removed.
The conditions of the system were as follows. Injection port: 200° C., splitless, ultra-purified helium (99.999%) carrier gas, front inlet flow 1.5 mL·min^−1 constant, 10 mL·min^−1 purge flow, 11.5 mL·min^−1 total flow. Oven: initial temperature 40° C. for 0 min, ramped by 43° C.·min^−1 to 185° C. for 0 min. Column: HP-5 MS, 30 m×0.25 mm i.d., 0.25 μm film thickness (Agilent). Transfer line temperature 225° C. MS: Electron ionization (−70 eV), ion source temperature 200° C., solvent delay 50 sec, m/z range 29 to 400, detector voltage 1500 V, data collection rate 20 Hz.
Compounds were identified by comparison of the retention time and mass spectrum against authenticated reference standards and spectra (National Institute of Standards and Technology Mass Spectral Search Program Version 2.0, 2001). Volatiles were quantified by calibration with a standard of 59 authenticated, high-purity compounds (Sigma-Aldrich Co. and Fluka Chemical) including the target compounds. The standard was made by placing 0.5 μL of an equal-part mixture of the neat compounds onto a disc of filter paper before quickly placing the filter paper into a 4-L sealed flask fitted with a Mininert valve (for SPME fiber access, and allowed to vaporize for at least 6 hours. SPME adsorption and desorption times of the standard matched that of the samples quantified (e.g., 30-s adsorption, 1 min desorption when quantifying samples in 22-mL vials).
Statistical analysis was performed using SciPy (v1.6.2), RStudio (v2023.03.0+386), or Microsoft Excel (v16.89). […]

banana pulp [3] = assay: Free amino acid content of banana pulp via UPLC-MS/MS after AHAS inhibitor treatment; parameters: species or system Musa spp. AAA group, Cavendish subgroup, cv. Valery; key to free asparagine content compared to control / free glutamine content compared to control / free histidine content compared to control / free isoleucine content compared to control / free lysine content compared to control / free methionine content compared to control / free phenylalanine content compared to control / free threonine content compared to control / free tryptophan content compared to control / free arginine content compared to control: —: Dash indicates no significant difference between treatments
Experimental: as §1
After volatile analysis, apple peel disks, collected peel of flowering quince, and ‘Valery’ pulp section samples were held at −80° C. for further amino acid analysis.
Frozen samples were ground to a powder in liquid nitrogen-chilled mortar and pestles. About 500 mg of tissue was vortexed for 10 sec in 2 mL of room temperature (22° C.) extraction solution (1:1:1 water:acetonitrile:ethanol, v/v/v) spiked with 2 nmoles of U-^13C,^15N labeled amino acids (MilliporeSigma) as internal standards and heated for 15 min in a 65° C. water bath. Extracts were briefly chilled on ice before centrifugation at 4400×g for 15 min at 4° C. The supernatant was filtered by centrifugation (0.2 μm nylon centrifugal filter; Costar, Corning) at 21000×g for 5 min at room temperature. 10 μL of the filtrate was transferred to an autosampler vial and diluted 100-fold with 990 μL of 10.1 mM perfluorohexanoic acid (PFHA) spiked with […] of internal standard. Thus the final concentration of internal standard was ˜2 μM.
An amino acid standard series was prepared from a premade mixture (MilliporeSigma, AAS18) that contained equal molar amounts of cystine and all 20 proteinogenic amino acids save for tryptophan, asparagine, glutamine, and cysteine. An equal molar mixture of tryptophan, asparagine, glutamine, and cysteine was subsequently prepared. To avoid dilution errors or artefacts from differing buffers, these amino acid stocks were aliquoted and desiccated such that a five-part standard series ranging from 250 μM to 25 nM would be produced upon resuscitation with 10 μL of spiked extraction buffer and 990 μL spiked PFHA solution.
Samples and amino acids were held overnight at −20° C. before analysis. Amino acids were analyzed with a Xevo TQ-S Micro UPLC (H-Class)-MS/MS (Waters) at the Michigan State University Mass Spectrometry and Metabolomics Core. Conditions were as follows. HPLC column: Acquirt UPLC HSS T3, 2.1×100 mm, 1.7 μm particle size (Waters), with a 0.2 μm pre-column filter (Waters). Mobile phase: A) 10 mM PFHA in water, B) acetonitrile. LC gradient: linear gradient, slope setting=6, flow rate=0.3 mL·min^−1, step 1) 0 min, 100% A, 0% B, 2) 1 min, 100% A, 0% B, 3) 8 min, 35% A, 65% B, 4) 8.01 min, 10% A, 90% B, 5) 9 min, 10% A, 90% B, 6) 9.01 min, 100% A, 0% B, 7) 13 min, 100% A, 0% B. Column temp: 40° C. Autosampler temp: 10° C. Injection volume: 10 μL. Tune parameters: electrospray ionization, standard ESI probe, capillary voltage=+1.0 kV, source temp=120° C., desolvation temp=350° C., desolvation gas=800 L·hr^−1, cone gas=40 L·hr^−1. […]

[4] = Valery banana pulp sections, 0.5 mM

Question: `CC1=CC1` [MCP, 1-methylcyclopropene] was tested. Which “respiration rate of MCP-treated fruit relative to untreated fruit” value [1] did it give?
Answer: 88.7%

Question: `COC(=O)c1c(Cl)nn(C)c1S(=O)(=O)NC(=O)Nc1nc(OC)cc(OC)n1` [halosulfuron-methyl, methyl 3-chloro-5-(4,6-dimethoxypyrimidin-2-ylcarbamoylsulfamoyl)-1-methylpyrazole-4-carboxylate] was tested. Which “ethyl acetate, butyl acetate, and butyl butanoate collectively reduced” value (banana pulp [2]; Valery banana fruit) did it give?
Answer: 95.0%

Question: And the “reduction in the total content of iso-branched-chain esters in the headspace” value (banana pulp [2]; Valery banana fruit)?
Answer: 90.3%

Question: And the “sec-branched esters or related volatiles (2-pentanone, 2-pentanol, 1-methylbutyl acetate, 1-methylbutyl butanoate) affected by inhibitor treatment” value (banana pulp [2]; Valery banana fruit)?
Answer: None

Question: What about the “1-methylbutyl acetate emissions compared to control” value (banana pulp [2]; [4]) of the same compound?
Answer: —

Question: What about the “2-methylpropyl acetate (val) emissions compared to control” value (banana pulp [2]; [4]) of the same compound?
Answer: 2.0 ± 0.7%

Question: And the “3-methylbutyl acetate (leu) emissions compared to control” value (banana pulp [2]; [4])?
Answer: 10.4 ± 5.4%

Question: What about the “butyl acetate emissions compared to control” value (banana pulp [2]; [4]) of the same compound?
Answer: 3.9 ± 2.7%

Question: What about the “ethyl acetate emissions compared to control” value (banana pulp [2]; [4]) of the same compound?
Answer: 3.9 ± 2.4%

Question: And the “sum of anteiso- and iso-branched-chain esters emissions compared to control” value (banana pulp [2]; [4])?
Answer: 9.7 ± 3.6%

Question: And the isoleucine levels (banana pulp [3]; Valery banana fruit)?
Answer: unchanged

Question: And the “total content of free amino acids” value (banana pulp [3]; Valery banana fruit)?
Answer: increased

Question: What about the “valine and leucine less abundant” value (banana pulp [3]; Valery banana fruit) of the same compound?
Answer: 57.6%

Question: And the “free alanine content compared to control” value (banana pulp [3]; [4])?
Answer: 407.4 ± 66.8%

Question: What about the “free arginine content compared to control” value (banana pulp [3]; [4]) of the same compound?
Answer: —

Question: And the “free asparagine content compared to control” value (banana pulp [3]; [4])?
Answer: —

Question: What about the “free aspartate content compared to control” value (banana pulp [3]; [4]) of the same compound?
Answer: 332.7 ± 30.1%

Question: What about the “free cysteine content compared to control” value (banana pulp [3]; [4]) of the same compound?
Answer: 264.2 ± 46.6%

Question: And the “free glutamate content compared to control” value (banana pulp [3]; [4])?
Answer: 217.4 ± 23.9%

Question: What about the “free glutamine content compared to control” value (banana pulp [3]; [4]) of the same compound?
Answer: —

Question: What about the “free glycine content compared to control” value (banana pulp [3]; [4]) of the same compound?
Answer: 173.1 ± 39.9%

Question: What about the “free histidine content compared to control” value (banana pulp [3]; [4]) of the same compound?
Answer: —

Question: What about the “free isoleucine content compared to control” value (banana pulp [3]; [4]) of the same compound?
Answer: —

Question: And the “free leucine content compared to control” value (banana pulp [3]; [4])?
Answer: 65.8 ± 6.1%

Question: What about the “free lysine content compared to control” value (banana pulp [3]; [4]) of the same compound?
Answer: —

Question: And the “free methionine content compared to control” value (banana pulp [3]; [4])?
Answer: —

Question: And the “free phenylalanine content compared to control” value (banana pulp [3]; [4])?
Answer: —

Question: What about the “free proline content compared to control” value (banana pulp [3]; [4]) of the same compound?
Answer: 188.4 ± 18.7%

Question: And the “free serine content compared to control” value (banana pulp [3]; [4])?
Answer: 186.2 ± 14.5%

Question: And the “free threonine content compared to control” value (banana pulp [3]; [4])?
Answer: —

Question: What about the “free tryptophan content compared to control” value (banana pulp [3]; [4]) of the same compound?
Answer: —

Question: What about the “free tyrosine content compared to control” value (banana pulp [3]; [4]) of the same compound?
Answer: 142.3 ± 25.1%

Question: What about the “free valine content compared to control” value (banana pulp [3]; [4]) of the same compound?
Answer: 14.3 ± 0.8%

Question: And the “total free amino acid content compared to control” value (banana pulp [3]; [4])?
Answer: 150.6 ± 13.7%
